Drawing on patent US8618287B2, “Derivatives of triazines and uracils, their preparation and their application in human therapeutics” (Pierre Fabre Medicament, priority 2008, dated 2013), this text covers melting point and inhibition for 23 compounds.

One data set concerns the target T1, Human SCD-1 (Homo sapiens, UniProt O00767).
T1 construct: adding 125 μg of microsomal fraction of HepG2 cells; host or cells: HepG2 human hepatocarcinoma cells (microsomal fraction)
T1 sequence (O00767 1-359): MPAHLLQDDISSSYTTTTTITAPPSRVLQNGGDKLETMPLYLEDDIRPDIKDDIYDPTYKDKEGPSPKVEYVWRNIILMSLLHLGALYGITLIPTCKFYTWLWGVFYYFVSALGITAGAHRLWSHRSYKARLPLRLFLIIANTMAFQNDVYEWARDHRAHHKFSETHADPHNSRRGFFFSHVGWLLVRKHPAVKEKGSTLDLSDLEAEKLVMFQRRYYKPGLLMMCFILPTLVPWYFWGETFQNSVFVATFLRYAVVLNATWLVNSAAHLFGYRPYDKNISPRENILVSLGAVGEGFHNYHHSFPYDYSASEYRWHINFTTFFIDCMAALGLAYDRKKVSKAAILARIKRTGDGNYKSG
As to the kind of experiment: Human SCD-1 enzymatic activity from microsomes of HepG2 cells (conversion of stearic acid into oleic acid). The class given is biochemical. The note with it: 10 μM compound; microsomal fraction of HepG2 cells; relative to carrier 0.1% DMSO; read-out: HSCD-1 (HEPG2) % inh. (10 μM). The procedure:
In vitro: Human SCD-1 enzymatic activity from microsomes of HepG2 cells after treatment with inhibitory compounds (inhibition %).
Human hepatocarcinoma HepG2 cells (ATCC, HB-8065) are grown to confluence and then trypsinized. The cell pellet is taken up in 10 mM Tris buffer (pH 7.4), saccharose (250 mM) DTT (1 mM) and then the cells are lyzed by sonication. The microsomes are obtained after centrifugation at 10,000 g for 20 minutes a 4° C. followed by centrifugation of the supernatant at 100,000 g for 60 minutes a 4° C. The pellet is taken up in 10 mM Tris buffer (pH 7.4) saccharose (250 mM) at 4° C. and the microsomal proteins are assayed and stored at −196° C. (liquid nitrogen).
The enzymatic reaction measures the conversion of stearic acid (a C18:0 fatty acid) into oleic acid (C18:1 fatty acid) by SCD-1. The enzymatic reaction is started by adding 125 μg of microsomal fraction of HepG2 cells to tubes (total reaction volume of 500 μl) containing 62 μM of stearic acid (45 μM of stearic acid and 17 μM of [^14C] stearic acid) in a phosphate buffer at 100 mM (pH 7.16) with 7.2 mM of ATP, 0.54 mM of CoA, 6 mM of MgCl2, 0.8 mM of NADH and the inhibitory compound or the carrier (0.1% DMSO). The tubes are incubated for 20 minutes at 37° C. and the enzymatic reaction is then stopped by adding KOH (12%) and saponification for 30 minutes at 80° C. After acidification (3N HCl), the fatty acids are extracted twice with ethyl ether, evaporated under nitrogen before being taken up with a methanol/dichloromethane (3:1) mixture. The product of the reaction (C18:1) is separated from the substrate of the reaction (C18:0) by HPLC (Perkin Elmer, C18 reverse phase column) coupled to a on-line radioactivity detector (FlowOne). Enzymatic activity is calculated in picomoles of stearic acid converted into oleic acid per minute and per mg of protein. For each inhibitory compound, an inhibition % is determined relatively to the reference enzymatic activity (carrier 0.1% DMSO). Sterculic acid is the reference inhibitory compound (Gomez F. E., Bauman D. E., Ntambi J. M., Fox B. G. Effects of sterculic acid on stearoyl-CoA desaturase in differentiating […] adipocytes. Biochem Biophys Res Commun. 300 316-326 (2003)).

As a reminder, the melting point is the temperature of the solid-liquid transition.

Each structure is given as a SMILES string.

In the case of `Cn1c(=O)c(N2CCC(Oc3ccccc3C(F)(F)F)CC2)nn(C2CCCCC2=O)c1=O` (centres unmarked) [Example 86, 4-methyl-2-(2-oxo-cyclohexyl)-6-[4-(2-trifluoromethyl-phenoxy)-piperidin-1-yl]-2H-[1,2,4]triazine-3,5-dione], the melting point was 65 °C. The inhibition at 10 µM on Human SCD-1 was determined as 90%.

The compound `Cn1nc(N2CCC(Oc3cc(C(F)(F)F)ccc3Cl)CC2)c(=O)n(C)c1=O` [Example 29, 6-[4-(2-chloro-5-trifluoromethyl-phenoxy)-piperidin-1-yl]-2,4-dimethyl-2H-[1,2,4]triazine-3,5-dione] yielded a melting point of 160 °C. At Human SCD-1, the inhibition at 10 µM was determined as 71%.

In the case of `Cn1nc(N2CCN(C(=O)c3ccccc3C(F)(F)F)CC2)c(=O)[nH]c1=O` [Example 2, 2-methyl-6-[4-(2-trifluoromethyl-benzoyl)-piperazin-1-yl]-2H-[1,2,4]triazine-3,5-dione], the melting point is 146 °C. At Human SCD-1, the inhibition at 10 µM came to 63%.

`Cn1c(=O)[nH]nc(N2CCN(Cc3ccccc3C(F)(F)F)CC2)c1=O` [Example 64, 4-methyl-6-[4-(2-trifluoromethyl-benzyl)-piperazin-1-yl]-2H-[1,2,4]triazine-3,5-dione] came in with a melting point of 205 °C. Moreover, the inhibition at 10 µM on Human SCD-1 was 57%.

`Cc1ccccc1-n1nc(N2CCC(Oc3ccccc3C(F)(F)F)CC2)c(=O)n(C)c1=O` [Example 79, 4-methyl-2-o-tolyl-6-[4-(2-trifluoromethyl-phenoxy)-piperidin-1-yl]-2H-[1,2,4]triazine-3,5-dione] registered a melting point of 106 °C. The inhibition at 10 µM on Human SCD-1 turned out to be 54%.

In the case of `COc1ccccc1-n1nc(N2CCC(Oc3ccccc3C(F)(F)F)CC2)c(=O)n(C)c1=O` [Example 84, 2-(2-methoxy-phenyl)-4-methyl-6-[4-(2-trifluoromethyl-phenoxy)-piperidin-1-yl]-2H-[1,2,4]triazine-3,5-dione], the melting point turned out to be 128 °C. The inhibition at 10 µM at Human SCD-1 worked out at 53%.

In the case of `Cn1c(=O)c(N2CCC(Oc3ccccc3C(F)(F)F)CC2)nn(-c2ccsc2)c1=O` [Example 82, 4-methyl-2-thiophen-3-yl-6-[4-(2-trifluoromethyl-phenoxy)-piperidin-1-yl]-2H-[1,2,4]triazine-3,5-dione], the melting point is 85 °C. In addition, at Human SCD-1, the inhibition at 10 µM came out at 100%.

With `Cn1c(=O)c(N2CCC(Oc3ccccc3C(F)(F)F)CC2)nn(-c2cccnc2)c1=O` [Example 81, 4-methyl-2-pyridin-3-yl-6-[4-(2-trifluoromethyl-phenoxy)-piperidin-1-yl]-2H-[1,2,4]triazine-3,5-dione], the melting point is 63 °C. Also, the inhibition at 10 µM at Human SCD-1 was 98%.

Regarding `Cn1c(=O)c(N2CCC(Oc3ccccc3Cl)CC2)nn(CCC#N)c1=O` [Example 23, 3-{6-[4-(2-chloro-phenoxy)-piperidin-1-yl]-4-methyl-3,5-dioxo-4,5-dihydro-3H-[1,2,4]triazin-2-yl}-propionitrile], the inhibition at 10 µM at Human SCD-1 stood at 73%.

In turn, `O=C(c1ccccc1C(F)(F)F)N1CCN(c2c[nH]c(=O)[nH]c2=O)CC1` [Example 6, 5-[4-(2-trifluoromethyl-benzoyl)-piperazin-1-yl]-1H-pyrimidine-2,4-dione] had a melting point of 285 °C. In addition, the inhibition at 10 µM on Human SCD-1 stood at 73%.

With `Cn1c(=O)[nH]nc(N2CCN(Cc3ccc(F)cc3C(F)(F)F)CC2)c1=O` [Example 71, 6-[4-(4-fluoro-2-trifluoromethyl-benzyl)-piperazin-1-yl]-4-methyl-2H-[1,2,4]triazine-3,5-dione], the inhibition at 10 µM on Human SCD-1 stood at 50%.

Turning to `Cn1c(=O)c(N2CCC(Oc3ccccc3Cl)CC2)nn(CCCC(F)(F)F)c1=O` [Example 25, 6-[4-(2-chloro-phenoxy)-piperidin-1-yl]-4-methyl-2-(4,4,4-trifluoro-butyl)-2H-[1,2,4]triazine-3,5-dione], the inhibition at 10 µM at Human SCD-1 is 70%.

For `CC(C)CCn1nc(N2CCN(C(=O)c3cc(F)ccc3C(F)(F)F)CC2)c(=O)n(C)c1=O` [Example 48, 6-[4-(5-fluoro-2-trifluoromethyl-benzoyl)-piperazin-1-yl]-4-methyl-2-(3-methyl-butyl)-2H-[1,2,4]triazine-3,5-dione], the inhibition at 10 µM on Human SCD-1 turned out to be 64%.

Consider `CCCCn1nc(N2CCC(Oc3ccccc3C(F)(F)F)CC2)c(=O)n(C)c1=O` [Example 13, 2-butyl-4-methyl-6-[4-(2-trifluoromethyl-phenoxy)-piperidin-1-yl]-2H-[1,2,4]triazine-3,5-dione], for which the inhibition at 10 µM at Human SCD-1 worked out at 75%.

Regarding `Cn1c(=O)c(N2CCC(Oc3ccccc3C(F)(F)F)CC2)nn(CCc2c[nH]c3ccccc23)c1=O` [Example 16, 2-[2-(1H-Indol-3-yl)-ethyl]-4-methyl-6-[4-(2-trifluoromethyl-phenoxy)-piperidin-1-yl]-2H-[1,2,4]triazine-3,5-dione], the inhibition at 10 µM on Human SCD-1 was 57%.

With `Cn1nc(N2CCC(Oc3ccccc3Cl)CC2)c(=O)n(C)c1=O` [Example 27, 6-[4-(2-chloro-phenoxy)-piperidin-1-yl]-2,4-dimethyl-2H-[1,2,4]triazine-3,5-dione], the inhibition at 10 µM at Human SCD-1 amounted to 82%.

For the compound `Cn1c(=O)[nH]nc(N2CCN(C(=O)c3ccc(F)cc3C(F)(F)F)CC2)c1=O` [Example 70, 6-[4-(4-fluoro-2-trifluoromethyl-benzoyl)-piperazin-1-yl]-4-methyl-2H-[1,2,4]triazine-3,5-dione], the inhibition at 10 µM on Human SCD-1 was found to be 66%.

On to `CCOCCn1nc(N2CCC(Oc3ccccc3C(F)(F)F)CC2)c(=O)n(C)c1=O` [Example 15, 2-(2-ethoxy-ethyl)-4-methyl-6-[4-(2-trifluoromethyl-phenoxy)-piperidin-1-yl]-2H-[1,2,4]triazine-3,5-dione], for which the inhibition at 10 µM at Human SCD-1 came out at 74%.

Turning to `Cn1c(=O)c(N2CCN(C(=O)c3ccccc3C(F)(F)F)CC2)nn(CCCC(F)(F)F)c1=O` [Example 3, 4-methyl-2-(4,4,4-trifluoro-butyl)-6-[4-(2-trifluoromethyl-benzoyl)-piperazin-1-yl]-2H-[1,2,4]triazine-3,5-dione], the inhibition at 10 µM on Human SCD-1 turned out to be 90%.

As to `Cn1c(=O)c(N2CCN(Cc3ccccc3C(F)(F)F)CC2)nn(CCCC(F)(F)F)c1=O` [Example 57, 4-methyl-2-(4,4,4-trifluoro-butyl)-6-[4-(2-trifluoromethyl-benzyl)-piperazin-1-yl]-2H-[1,2,4]triazine-3,5-dione], the inhibition at 10 µM on Human SCD-1 came to 71%.

As for `Cn1nc(N2CCC(Oc3ccccc3C(F)(F)F)CC2)c(=O)n(C)c1=O` [Example 11, 2,4-dimethyl-6-[4-(2-trifluoromethyl-phenoxy)-piperidin-1-yl]-2H-[1,2,4]triazine-3,5-dione], the inhibition at 10 µM on Human SCD-1 turned out to be 92%.

With `Cn1nc(N2CCC(Oc3ccccc3F)CC2)c(=O)n(C)c1=O` [Example 28, 6-[4-(2-fluoro-phenoxy)-piperidin-1-yl]-2,4-dimethyl-2H-[1,2,4]triazine-3,5-dione], the inhibition at 10 µM on Human SCD-1 was 50%.

As to `Cn1c(=O)[nH]nc(N2CCN(C(=O)c3cc(F)ccc3C(F)(F)F)CC2)c1=O` [Example 69, 6-[4-(5-fluoro-2-trifluoromethyl-benzoyl)-piperazin-1-yl]-4-methyl-2H-[1,2,4]triazine-3,5-dione], at Human SCD-1, the inhibition at 10 µM worked out at 84%.
